Data published in patent US20120028995A1, “NOVEL COMPOUNDS FOR MEDICAL USE AS PEPTIDASE EFFECTORS” (IMTM GMBH, priority 2010, published 2012).
Like-named read-outs stand apart in the source and are kept apart here.

What was measured:
[1] = target: T1, cytosolic aminopeptidase (cAAP) purified from Jurkat cells (Homo sapiens, UniProt P55786); experiment: Inhibition of enzymatic activity of cytosolic aminopeptidase (cAAP); format: biochemical; conditions: highest test item concentration 25 μM; for IC50: read-out: meas. IC50 (cAAP)
T1 construct: The cytosolic aminopeptidase (cAAP) was purified from Jurkat cells; endogenous in cells; host or cells: Jurkat cells (enzyme purified from them)
T1 sequence (P55786 whole entry): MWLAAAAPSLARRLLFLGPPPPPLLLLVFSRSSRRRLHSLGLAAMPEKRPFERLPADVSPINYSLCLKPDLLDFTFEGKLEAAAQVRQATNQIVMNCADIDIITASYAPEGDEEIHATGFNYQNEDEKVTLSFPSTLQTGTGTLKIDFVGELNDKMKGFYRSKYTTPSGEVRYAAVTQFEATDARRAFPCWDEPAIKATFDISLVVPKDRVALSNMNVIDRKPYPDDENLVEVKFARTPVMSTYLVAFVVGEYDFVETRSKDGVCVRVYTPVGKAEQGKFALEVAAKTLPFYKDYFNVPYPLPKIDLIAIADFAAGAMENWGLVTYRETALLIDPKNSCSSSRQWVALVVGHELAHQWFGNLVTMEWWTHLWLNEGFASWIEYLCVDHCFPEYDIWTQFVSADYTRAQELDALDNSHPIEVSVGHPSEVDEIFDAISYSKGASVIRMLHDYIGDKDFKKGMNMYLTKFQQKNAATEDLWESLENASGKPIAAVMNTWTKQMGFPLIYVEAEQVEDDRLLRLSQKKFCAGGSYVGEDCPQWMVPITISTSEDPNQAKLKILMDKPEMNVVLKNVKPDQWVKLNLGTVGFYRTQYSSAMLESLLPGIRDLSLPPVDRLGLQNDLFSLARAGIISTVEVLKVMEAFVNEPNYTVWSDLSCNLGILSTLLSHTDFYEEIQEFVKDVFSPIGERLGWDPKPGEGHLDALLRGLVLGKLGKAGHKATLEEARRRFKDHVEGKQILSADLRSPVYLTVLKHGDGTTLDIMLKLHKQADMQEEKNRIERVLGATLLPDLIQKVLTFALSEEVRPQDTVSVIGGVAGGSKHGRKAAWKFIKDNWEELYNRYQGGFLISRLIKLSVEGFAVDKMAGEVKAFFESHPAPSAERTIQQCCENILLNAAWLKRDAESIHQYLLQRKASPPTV

[2] = target: T2, aminopeptidase N (APN), purified recombinant human enzyme (Homo sapiens, UniProt P15144); experiment: Inhibition of enzymatic activity of aminopeptidase N (fluorogenic substrate hydrolysis); format: biochemical; conditions: highest test item concentration 25 μM; for IC50: read-out: meas. IC50 (APN)
T2 construct: made in house; host or cells: ECV cells (transfected)
T2 sequence (P15144 whole entry): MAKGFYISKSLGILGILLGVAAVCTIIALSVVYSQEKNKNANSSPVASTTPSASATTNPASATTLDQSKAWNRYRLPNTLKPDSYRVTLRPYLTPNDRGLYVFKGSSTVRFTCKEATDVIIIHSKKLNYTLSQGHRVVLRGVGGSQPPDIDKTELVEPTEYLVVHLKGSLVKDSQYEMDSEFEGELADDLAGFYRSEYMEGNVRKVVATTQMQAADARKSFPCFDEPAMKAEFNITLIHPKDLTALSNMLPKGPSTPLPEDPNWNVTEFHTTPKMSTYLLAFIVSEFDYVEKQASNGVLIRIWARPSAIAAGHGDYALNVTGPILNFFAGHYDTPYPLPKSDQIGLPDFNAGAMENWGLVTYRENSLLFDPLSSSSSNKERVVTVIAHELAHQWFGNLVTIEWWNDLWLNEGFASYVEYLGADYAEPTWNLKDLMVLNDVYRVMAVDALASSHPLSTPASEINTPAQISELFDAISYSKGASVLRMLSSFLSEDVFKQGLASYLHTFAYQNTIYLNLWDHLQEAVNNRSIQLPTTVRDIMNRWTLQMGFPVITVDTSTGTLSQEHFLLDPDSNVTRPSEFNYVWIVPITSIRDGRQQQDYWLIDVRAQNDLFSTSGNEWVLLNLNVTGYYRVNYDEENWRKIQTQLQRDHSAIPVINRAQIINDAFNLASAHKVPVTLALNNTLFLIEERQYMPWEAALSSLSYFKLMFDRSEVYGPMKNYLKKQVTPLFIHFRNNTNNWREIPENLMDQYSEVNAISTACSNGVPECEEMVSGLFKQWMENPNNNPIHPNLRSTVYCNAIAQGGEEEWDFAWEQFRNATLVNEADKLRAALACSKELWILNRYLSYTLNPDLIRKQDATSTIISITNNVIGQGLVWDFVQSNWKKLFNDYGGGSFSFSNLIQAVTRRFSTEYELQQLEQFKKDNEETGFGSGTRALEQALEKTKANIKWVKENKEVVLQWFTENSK
Experimental: The inhibition of the enzymatic activity of aminopeptidase N (APN) was measured by using purified, recombinant human enzyme (purified from transfected ECV cells, final enzyme concentration approx. 1 nM). […] The assay was performed in 0.05M TRIS/HCl puffer pH 7.5, supplemented with 0.05% Triton (v/v), 0.05% BSA (w/v), 2 mM MgCl2.
The aminopeptidase acitivities wer assessed by the hydrolysis of the fluorogenic substrates H-Ala-4-amino-7-methyl coumarine (abbreviation of fluorogenic group AMC; purchased from Bachem) or (Ala-)2-Rhodamine 110 (abbreviation R110). The final substrate concentrations were again 50 and 1 μM, respectively.
(§1) The assay was performed in white microtitre plates for fluorescence measurements. The test items, substrate and enzyme were diluted in assay buffer. The highest test item concentration used was 25 μM. For the calculation of IC50 values, at least 16 log 2-dilutions of each test item were analyzed. As controls, the DPIV activity in the absence of test items as well as the spontaneous hydrolysis of the substrate was determined.
The release of the fluorescent hydrolysis products AMC and R110 was measured as described above for DPIV substrates.

T lymphocytes (T cells) = experiment: Suppression of DNA synthesis of PHA-stimulated T lymphocytes; format: cell-based; conditions: tritium thymidine incorporation, read-out: Supp. DNA Synt. T-cell IC50
Experimental: Peripheral blood mononuclear cells (PBMC) from healthy human volunteers were freshly isolated by density gradient centrifugation. T lymphocytes (T cells) were isolated from PBMC fractions via nylon wool adherence. Both cell populations were cultured in serum free lymphocyte medium (AIMV medium, Invitrogen) and stimulated by addition of 1 μg/ml Phytohemagglutinine for 48 hours in 96 well flat-bottom microtiter plates. Test compounds were added at concentration ranges from 0.1 up to 250 μM over the total assay period.
DNA synthesis of proliferating PBMC was assessed by incorporation of nucleotide analogue bromdesoxyuridine (BrdU) and subsequent detection of BrdU by ELISA technique (Cell Proliferation Biotrak™ ELISA system, GE Health Care) according to the protocol of the manufacturer. DNA synthesis of proliferating T cells was determined by incorporation of radio labelled tritium thymidine and subsequent radio detection.
Data output was based on raw data and calculation of relative proliferation response in relation to PHA-activated T cells in the absence of test compound (100% control). The IC50 value of proliferation suppression was assessed by graphical evaluation.

SZ95 cells = experiment: Inhibition of DNA synthesis and proliferation of immortalized human sebocytes SZ95; format: cell-based; conditions: EGF-stimulated SZ95 sebocytes, tritium thymidine incorporation, read-out: Supp. DNA Synt. SZ95 IC50
Experimental: The immortalized human sebocyte line SZ95 was provided by Prof. C Zouboulis [C C Zouboulis, H Seltmann, H Neitzel, C E Orfanos, Establishment and characterization of an immortalized human sebaceous gland cell line (SZ95). J. Invest. Dermatol. 113(6):1011-1020 (1999), the entire disclosure of which is incorporated by reference herein]. These adherent growing cells were cultured in serum-free Sebomed Complete (Biochrom). Recombinant EGF was added in order to stimulate DNA synthesis and proliferation of the SZ95 cells. Test items were added in concentrations from 0.1 up to 100 μM.
The DNA synthesis of proliferating cells was detected by incorporation of radiolabelled tritium thymidine (3HT) and counting at a beta counter. Based on these raw data the relative proliferation response in relation to cells cultured in the absence of test compound (100% control) was calculated. IC50 values of proliferation suppression were assessed by computer-assisted graphical evaluation.

[3] = tested on: purified, recombinant DP8 and DP9; experiment: Inhibition of enzymatic activity of DP8/9; format: biochemical; conditions: highest test item concentration 25 μM; for IC50: read-out: meas. IC50 (DP8/9)
Experimental: (§2) The inhibition of the enzymatic activity of DPIV and related enzymes was measured by using purified, recombinant human DPIV (purified from transfected Sf9 cells, final enzyme concentration approx. 1 nM) as well as purified, recombinant DP8 and DP9 (purchased from Biomol). The assay was performed in 0.05M TRIS/HCl puffer pH 7.5, supplemented with 0.05% Triton (v/v), 0.05% BSA (w/v), 2 mM MgCl2.
(§3) The enzymatic activity of DPIV was assessed by the hydrolysis of the fluorogenic substrates H-Gly-Pro-4-amino-7-methyl coumarine (abbreviation of fluorogenic group AMC; purchased from Bachem) or (Ala-Pro)2-Rhodamine 110 (abbreviation R110). The final substrate concentrations were 50 μM or 1 μM, respectively.
as §1
(§4) The release of the fluorescent hydrolysis product AMC was measured at an excitation wavelength of 380 nm and an emission wavelength of 460 nm by using a microtitre fluorescence reader immediately after substrate addition as well as after 30, 60 and 120 min. The hydrolysis of the substrate (Ala-Pro)2-Rhodamine 110 was determined at an exitation wavelength of 488 nm and emission wavelength of 530 nm.

[4] = target: T3, purified, recombinant human DPIV (Homo sapiens, UniProt P27487); experiment: Inhibition of enzymatic activity of DPIV (fluorogenic substrate hydrolysis); format: biochemical; conditions: highest test item concentration 25 μM; for IC50: read-out: meas. IC50 (DPIV)
T3 construct: made in house; host or cells: Sf9 insect cells
T3 sequence (P27487 whole entry): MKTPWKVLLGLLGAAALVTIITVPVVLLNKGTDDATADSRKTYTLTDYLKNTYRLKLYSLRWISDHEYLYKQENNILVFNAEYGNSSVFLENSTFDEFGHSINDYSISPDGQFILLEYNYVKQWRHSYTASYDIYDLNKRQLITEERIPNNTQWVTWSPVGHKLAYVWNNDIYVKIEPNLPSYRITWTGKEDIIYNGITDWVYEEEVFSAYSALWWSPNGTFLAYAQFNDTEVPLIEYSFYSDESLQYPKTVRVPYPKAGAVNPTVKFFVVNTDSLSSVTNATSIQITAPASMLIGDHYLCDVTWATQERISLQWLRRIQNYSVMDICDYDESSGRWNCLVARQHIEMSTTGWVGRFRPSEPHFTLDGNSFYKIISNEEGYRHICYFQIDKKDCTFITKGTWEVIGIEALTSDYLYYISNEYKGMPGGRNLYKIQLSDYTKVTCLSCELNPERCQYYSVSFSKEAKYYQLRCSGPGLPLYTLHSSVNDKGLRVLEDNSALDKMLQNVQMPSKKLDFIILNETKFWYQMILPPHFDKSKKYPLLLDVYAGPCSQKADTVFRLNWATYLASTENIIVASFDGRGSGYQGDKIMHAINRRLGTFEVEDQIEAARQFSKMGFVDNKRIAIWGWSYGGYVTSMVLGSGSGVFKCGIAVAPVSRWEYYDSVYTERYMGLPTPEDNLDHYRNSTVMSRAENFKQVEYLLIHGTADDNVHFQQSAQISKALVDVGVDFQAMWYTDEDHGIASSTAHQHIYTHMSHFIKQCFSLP
Experimental: as §2, §3, §1, §4

NHEK cells = experiment: Inhibition of DNA synthesis and proliferation of normal human epidermal keratinocytes (NHEK); format: cell-based; conditions: EGF-stimulated NHEK, BrdU incorporation, read-out: Supp. DNA Synt. NHEK IC50
Experimental: NHEK cells (primary cells from person) were purchased from PromoCell. For these assay the adherent cells were cultured in serum-free Keratinocyte Growth medium 2 supplemented with epidermal growth factor (EGF) and bovine pituitary extract for 48 hours in flat-bottom microtiter plates. EGF stimulates the DNA synthesis and proliferation of these cells. Test items were added in concentrations from 0.1 up to 100 μM.
The DNA synthesis was assessed by incorporation of bromdesoxyuridine (BrdU) and subsequent detection of BrdU by ELISA technique. Based on these raw data the relative proliferation response in relation to cells cultured in the absence of test compound (100% control) was calculated. IC50 values of proliferation suppression were assessed by computer-assisted graphical evaluation.

| Structure (SMILES) | IC50 [1] [µM] | IC50 [2] [µM] | IC50 (T lymphocytes (T cells); Homo sapiens, T-cell, 48 h) [µM] | IC50 [4] [µM] | meas. IC50 (APN) [2] | meas. IC50 (DP8/9) [3] | meas. IC50 (DPIV) [4] | IC50 (SZ95 cells; Homo sapiens) [µM] | IC50 [3] [µM] | IC50 (NHEK cells; Homo sapiens, NHEK, 48 h) [µM] | also measured |
| --- | --- | --- | --- | --- | --- | --- | --- | --- | --- | --- | --- |
| CC(C)(CNC(=O)CC(N)Cc1cc(F)ccc1F)CNC(=O)C(O)C(N)Cn1cnc2cncnc21 (stereo not shown) [Compound C18.001] | 1 | 0.91 | 29.8 | 0.247 | – | – | – | ≥ 156 | 16 | – | – |
| CC(C)(CNC(=O)CC(N)Cc1cc(F)ccc1F)CNC(=O)C(O)C(N)COCc1ccccc1 (stereo not shown) [Compound C19.001] | – | – | – | – | – | – | – | – | 1.25 | – | – |
| CC(C)(CNC(=O)CC(Cc1cc(F)ccc1F)NC(=O)OC(C)(C)C)CNC(=O)C(O)C(COCc1ccccc1)NC(=O)OC(C)(C)C (stereo not shown) [Compound C19.004] | – | – | – | – | no in- hibition | no in- hibition | no in- hibition | – | – | – | meas. IC50 (cAAP) [1]: no in- hibition; IC50 (T lymphocytes (T cells); PHA-stimulated human T cells, 48 hours): 9.7 µM; IC50 (NHEK cells; 48 hours): 19.8 µM; IC50 (SZ95 cells): 18.3 µM |
| CCCC(=O)OC(C(=O)Nc1cccc(C(=O)NCC(Cc2cc(F)ccc2F)NC(=O)OC(C)(C)C)c1)C(COCc1ccccc1)NC(=O)OC(C)(C)C (stereo not shown) [Compound C19.005] | 5.7 | – | 11.5 | – | no in- hibition | no in- hibition | no in- hibition | 10.7 | – | 3.65 | – |
| CC(C)(CNC(=O)CC(N)Cc1cc(F)ccc1F)CNC(=O)C(O)C(N)COCc1ccccc1 (stereo not shown) [Compound C19.020] | – | – | – | – | – | – | – | – | 1.2 | – | – |
| CC(C)(CNC(=O)CC(N)Cc1cc(F)ccc1F)CNC(=O)C(O)C(N)COCc1ccccc1 (stereo not shown) [Compound C19.022] | – | – | – | – | – | – | – | – | 1.2 | – | – |
| CC(C)(C)OC(=O)NC(CCCCNS(=O)(=O)c1cccc(NC(=O)C(O)C(Cc2ccccc2)NC(=O)OC(C)(C)C)c1)C(=O)N1CCSC1 (stereo not shown) [Compound C21.005] | – | – | 11.4 | – | no in- hibition | no in- hibition | no in- hibition | – | – | 15.3 | meas. IC50 (cAAP) [1]: no in- hibition |
| NC(CCCCNS(=O)(=O)c1cccc(NC(=O)C(O)C(N)Cc2ccccc2)c1)C(=O)N1CCSC1 (stereo not shown) [Compound C21.006] | 0.12 | 0.89 | 157 | 0.05 | – | – | – | – | 0.11 | 66.2 | – |
| CC(C)(C)OC(=O)NC(CNS(=O)(=O)CCCNC(=O)C(O)C(Cc1ccccc1)NC(=O)OC(C)(C)C)Cc1cc(F)ccc1F (stereo not shown) [Compound C26.002] | – | – | 200 | 6.52 | no in- hibition | no in- hibition | – | – | – | 18.1 | meas. IC50 (cAAP) [1]: no in- hibition |
| CC(=O)NC(Cc1ccccc1)C(O)C(=O)NCCCS(=O)(=O)NCC(N)Cc1cc(F)ccc1F (stereo not shown) [Compound C26.003] | 0.25 | 0.19 | 70 | 0.36 | – | no in- hibition | – | – | – | ≥ 167 | – |
| CC(=O)NC(Cc1ccccc1)C(O)C(=O)NCCCS(=O)(=O)NCC(Cc1cc(F)ccc1F)NC(=O)OC(C)(C)C (stereo not shown) [Compound C26.004] | – | – | 70 | – | no in- hibition | no in- hibition | no in- hibition | – | – | ≥ 106 | meas. IC50 (cAAP) [1]: no in- hibition |
| CCOC(=O)C(O[Si](C)(C)C(C)(C)C)C(Cc1ccc(-c2cccnc2)cc1)NC(=O)OCc1ccccc1 (stereo not shown) [Compound C26.006] | – | – | 3.8 | – | no in- hibition | – | no in- hibition | 7.9 | – | 1.9 | meas. IC50 (cAAP) [1]: no in- hibition |
| CC(C)(C)OC(=O)NC(CNC(=O)CCCNC(=O)C(O)C(Cc1ccccc1)NC(=O)OC(C)(C)C)Cc1cc(F)ccc1F (stereo not shown) [Compound C26.009] | – | – | – | – | no in- hibition | – | no in- hibition | – | – | – | – |
| CC(C)(C)OC(=O)NC(CNC(=O)c1cccc(NC(=O)C(O)C(N)Cc2ccc(-c3cccnc3)cc2)c1)Cc1cc(F)ccc1F (stereo not shown) [Compound C-125] | 0.005 | 0.094 | 12.9 | – | – | – | no in- hibition | 13.7 | – | 4.4 | – |

Further lines, with some results ahead:

| IC50 [1] [µM] | IC50 [2] [µM] | IC50 (T lymphocytes (T cells); Homo sapiens, T-cell, 48 h) [µM] | IC50 [4] [µM] | meas. IC50 (APN) [2] | meas. IC50 (DP8/9) [3] | meas. IC50 (DPIV) [4] | Structure (SMILES) | IC50 (SZ95 cells; Homo sapiens) [µM] | IC50 [3] [µM] | IC50 (NHEK cells; Homo sapiens, NHEK, 48 h) [µM] | also measured |
| --- | --- | --- | --- | --- | --- | --- | --- | --- | --- | --- | --- |
| 0.37 | 0.92 | 81.2 | 0.33 | – | – | – | CC(C)(CNC(=O)CC(N)Cc1cc(F)ccc1F)CNC(=O)C(O)C(N)CO (stereo not shown) [Compound C19.003] | 81.4 | 3.8 | – | – |
| 10.2 | – | 6.2 | – | no in- hibition | no in- hibition | no in- hibition | COc1ccc(COCC(NC(=O)OC(C)(C)C)C(O)C(=O)NCC(C)(C)CNC(=O)CC(Cc2cc(F)ccc2F)NC(=O)OC(C)(C)C)cc1 (stereo not shown) [Compound C19.006] | 18.5 | – | 24.1 | – |
| 0.09 | 0.07 | 200 | 0.58 | – | – | – | NC(CNS(=O)(=O)CCCNC(=O)C(O)C(N)Cc1ccccc1)Cc1cc(F)ccc1F (stereo not shown) [Compound C26.001] | – | 7.37 | ≥ 135 | – |
| 0.13 | 0.09 | 27.3 | – | – | – | no in- hibition | NC(CNC(=O)CCCNC(=O)C(O)C(N)Cc1ccccc1)Cc1cc(F)ccc1F (stereo not shown) [Compound C26.005] | – | – | 28.9 | – |
| – | – | 3.5 | – | no in- hibition | – | no in- hibition | NC(Cc1cc(F)ccc1F)CS(=O)(=O)NCCCCNC(=O)C(O)C(N)Cc1ccccc1 (stereo not shown) [Compound C26.007] | 7.3 | – | – | – |
| – | 0.01 | – | 0.9 | – | – | – | NC(CNC(=O)CCCNC(=O)C(O)C(N)Cc1ccccc1)Cc1cc(F)ccc1F (stereo not shown) [Compound C26.008] | – | – | – | – |
